Data as given in article PMC3618599 (Clinical cancer research : an official journal of the …, 2013).

Legend:
[1] = Alvocidib plasma pharmacokinetics; format: in vivo, human; conditions: for Overall mean CL of alvocidib: initial dose, geometric mean ± SD
[2] = test system: solid tumor patients; conditions: cited from earlier work
[3] = cited from earlier work
[4] = test system: patients with relapsed, refractory, or poor prognosis acute leukemia, or RAEB-2; test: Phase I 3+3 dose escalation: DLT and MTD of alvocidib combined with vorinostat; format: in vivo, human
[5] = Vorinostat, VG and VA serum pharmacokinetics; format: in vivo, human; conditions: for Change in Tmax, Cmax, and AUC0-8h: DSI schedule, day 1 or day 4, alvocidib escalated over 10–40 mg/m^2
[6] = days 2 and 16, 28-day cycles, with vorinostat 800 mg
[7] = vorinostat 200 mg orally with alvocidib

Which “Plasma concentration immediately before dosing on days 4 or 8 (accumulation)” value ([1]; daily and weekly infusion schedules, on average) does the source give for CN1CC[C@H](c2c(O)cc(O)c3c(=O)cc(-c4ccccc4Cl)oc23)[C@H](O)C1 [alvocidib, flavopiridol] here?
Its value is < 1 % of the subsequent Cmax.

What about the “Mean CL of alvocidib” value ([1]; day 4 dose, DSI schedule, after vorinostat 200 mg TID for 3 days) of the same compound?
The value was 9.9 ± 5.4 L/h/m^2.

What about the “Mean CL of alvocidib” value ([1]; day 8 dose, WLMI schedule, after vorinostat 200 mg TID for 7 days) of the same compound?
The value was 11.0 ± 3.9 L/h/m^2.

What about the “Overall mean CL of alvocidib” value ([1]; DSI schedule) of the same compound?
The value was 13.0 ± 4.8 L/h/m^2.

What about the “Overall mean CL of alvocidib” value ([1]; WLMI schedule) of the same compound?
Its value is 12.2 ± 5.3 L/h/m^2.

What about the “MTD, alvocidib given over 4 h” value [2, 6] of the same compound?
The value was 30 mg/m^2.

What about the “MTD, alvocidib initial 30 min infusion” value [2, 6] of the same compound?
Its value is 30 mg/m^2.

And the “Binding to plasma proteins” value [3]?
The value was “highly bound”.

And the “MTD, alvocidib maintenance infusion” value ([4]; 4-h maintenance infusion, days 1 and 8 of 21-day cycle (WLMI), with vorinostat 200 mg orally TID days 1–14)?
Its value is 20 mg/m^2.

And the “MTD, alvocidib loading infusion” value ([4]; 30-min loading infusion, days 1 and 8 of 21-day cycle (WLMI), with vorinostat 200 mg orally TID days 1–14)?
Its value is 20 mg/m^2.

With O=C(O)CCC(=O)Nc1ccccc1 [VA, 4-anilino-4-oxobutanoic acid] as the compound, how does the “Change in Tmax, Cmax, and AUC0-8h” value [5] read?
The value was “no change”.

What does the source list for O=C(CCCCCCC(=O)Nc1ccccc1)NO [vorinostat, Vorinostat]?
MTD, vorinostat ([2]; days 1–3 and 15–17, 28-day cycles, with alvocidib WLMI): 800 mg; Change in Tmax, Cmax, and AUC0-8h [5]: no change; Vorinostat AUC higher, WLMI compared to DSI schedule [5, 7]: 25–50%; Vorinostat Cmax higher, WLMI compared to DSI schedule [5, 7]: 25–50%; MTD for this regimen, vorinostat ([4]; TID, with alvocidib WLMI 20/20 mg/m^2): 200 mg

With O=C(CCCCCCC(=O)Nc1ccccc1)NO[C@@H]1O[C@H](C(=O)O)[C@@H](O)[C@H](O)[C@H]1O [VG, vorinostat glucuronide] as the compound, how does the “Change in Tmax, Cmax, and AUC0-8h” value [5] read?
Its value is “no change”.

What about the “AUC lower with 60 mg/m^2 compared to 40 mg/m^2 alvocidib dose” value ([5]; WLMI schedule) of the same compound?
Its value is 50%.

What about the “Cmax lower with 60 mg/m^2 compared to 40 mg/m^2 alvocidib dose” value ([5]; WLMI schedule) of the same compound?
The value was 50%.
